Structures can show the parent of a compound that is named as a salt.
Key:
Format in all cases: functional
DU-145 = assay: Growth inhibition of human DU145 cells incubated for 48 hrs by sulforhodamine B assay; conditions: DU-145, 48 h
SF-268 = assay: Growth inhibition of human SF268 cells incubated for 48 hrs by sulforhodamine B assay; conditions: SF-268, 48 h
KM-20L2 = assay: Growth inhibition of human KM20L2 cells incubated for 48 hrs by sulforhodamine B assay; conditions: KM-20L2, 48 h
NCI-H460 = assay: Growth inhibition of human NCI-H460 cells incubated for 48 hrs by sulforhodamine B assay; conditions: NCI-H460, 48 h
MCF7 = assay: Growth inhibition of human MCF7 cells incubated for 48 hrs by sulforhodamine B assay; conditions: MCF7, 48 h
BXPC-3 = assay: Growth inhibition of human BxPC3 cells incubated for 48 hrs by sulforhodamine B assay; conditions: BXPC-3, 48 h
[1] = system: Panel NCI-60 (60 carcinoma cell lines); assay: Growth inhibition of human NCI60 cells

GI50 (DU-145) | GI50 (NCI-H460) | GI50 (MCF7) | GI50 (BXPC-3) | Structure (SMILES) | GI50 (SF-268) | GI50 (KM-20L2) | GI50 [1] [nM]
36.1 nM | – | 54.2 nM | 56 nM | CC[C@H]1CN2CCc3cc(OC)c(OC)cc3[C@@H]2C[C@@H]1C[C@H]1NCCc2cc(OC)c(OC)cc21 [EMETINE HYDROCHLORIDE] | – | 47 nM | –
3420 nM | 5700 nM | 1600 nM | 2390 nM | CC[C@H]1CN2CCc3cc(OC)c(OC)cc3[C@@H]2C[C@@H]1C[C@@H]1c2cc(OC)c(OC)cc2CCN1C(=O)[C@H](C)[C@@H](OC)[C@@H]1CCCN1 | 3650 nM | 3420 nM | –
– | – | – | – | CC[C@H]1CN2CCc3cc(OC)c(OC)cc3[C@@H]2C[C@@H]1C[C@H]1NCCc2cc(OC)c(OC)cc21 [EMETINE] | – | – | 27
181 nM | 4530 nM | 118 nM | 1900 nM | CC[C@H]1CN2CCc3cc(OC)c(OC)cc3[C@@H]2C[C@@H]1C[C@@H]1c2cc(OC)c(OC)cc2CCN1CCNC(=O)[C@H](C)[C@@H](OC)[C@@H]1CCCN1C(=O)C[C@@H](OC)[C@H]([C@@H](C)CC)N(C)C(=O)[C@@H](NC(=O)[C@H](C(C)C)N(C)C)C(C)C | 272 nM | 362 nM | –
> 10 µg/mL | > 10 µg/mL | 10 µg/mL | > 10 µg/mL | CC[C@H]1CN2CCc3cc(OC)c(OC)cc3[C@@H]2C[C@@H]1C[C@@H]1c2cc(OC)c(OC)cc2CCN1C(=O)CCNC(=O)OC(C)(C)C | > 10 µg/mL | > 10 µg/mL | –
10 µg/mL | > 10 µg/mL | > 10 µg/mL | > 10 µg/mL | CC[C@H]1CN2CCc3cc(OC)c(OC)cc3[C@@H]2C[C@@H]1C[C@@H]1c2cc(OC)c(OC)cc2CCN1C(=O)CCNC(=O)[C@H](C)[C@@H](OC)[C@@H]1CCCN1C(=O)OC(C)(C)C | > 10 µg/mL | > 10 µg/mL | –
97.2 nM | 2830 nM | 159 nM | 3800 nM | CC[C@H]1CN2CCc3cc(OC)c(OC)cc3[C@@H]2C[C@@H]1C[C@@H]1c2cc(OC)c(OC)cc2CCN1C(=O)CCNC(=O)[C@H](C)[C@@H](OC)[C@@H]1CCCN1C(=O)C[C@@H](OC)[C@H]([C@@H](C)CC)N(C)C(=O)[C@@H](NC(=O)[C@H](C(C)C)N(C)C)C(C)C | 186 nM | 194 nM | –

Structure (SMILES) | GI50 (DU-145) | GI50 (NCI-H460) | GI50 (MCF7) | GI50 (BXPC-3) | GI50 (SF-268) | GI50 (KM-20L2) | GI50 [1] [nM]
CC[C@H]1CN2CCc3cc(OC)c(OC)cc3[C@@H]2C[C@@H]1C[C@@H]1c2cc(OC)c(OC)cc2CCN1C(=O)[C@H](C)[C@@H](OC)[C@@H]1CCCN1C(=O)C[C@@H](OC)[C@H]([C@@H](C)CC)N(C)C(=O)[C@@H](NC(=O)[C@H](C(C)C)N(C)C)C(C)C | 12.3 nM | 198 nM | 35.8 nM | 386 nM | 30.2 nM | 35.8 nM | –
CC[C@H]1CN2CCc3cc(OC)c(OC)cc3[C@@H]2C[C@@H]1C[C@@H]1c2cc(OC)c(OC)cc2CCN1C(=O)CCN.O=C(O)C(F)(F)F.O=C(O)C(F)(F)F | 10.1 µg/mL | > 10 µg/mL | > 10 µg/mL | 10.3 µg/mL | > 10 µg/mL | > 10 µg/mL | –
